Measurements as given in ChEMBL document CHEMBL5241058, “Pyrazole-based analogs as potential antibacterial agents against methicillin-resistance staphylococcus aureus (MRSA) and its SAR elucidation” (Eur J Med Chem, 2021).
pIC50: −log10 of the molar value. Converted amounts (≈) assume the structure as drawn.

How the values were obtained:
Staphylococcus aureus [1] = assay: Antimicrobial activity against Methicillin-resistant Staphylococcus aureus CCARM 3506 assessed as bacterial growth inhibition incubated for 24 hrs by ELISA assay; format: functional
Staphylococcus aureus [2] = assay: Antimicrobial activity against Methicillin sensitive Staphylococcus aureus assessed as bacterial growth inhibition incubated for 18 hrs; format: functional
Staphylococcus aureus [3] = assay: Antimicrobial activity against Methicillin-resistant Staphylococcus aureus assessed as bacterial growth inhibition by agar well diffusion method; format: functional
Staphylococcus aureus [4] = assay: Antimicrobial activity against Methicillin-resistant Staphylococcus aureus assessed as bacterial growth inhibition by microtiter dilution plate method; format: functional
Staphylococcus aureus [5] = assay: Antimicrobial activity against Methicillin-resistant Staphylococcus aureus BFSA31 assessed as bacterial growth inhibition by microdilution method; format: functional; conditions: BFA31
Staphylococcus aureus [6] = assay: Antimicrobial activity against Methicillin-resistant Staphylococcus aureus BFSA33 assessed as bacterial growth inhibition by microdilution method; format: functional; conditions: BFA33
Staphylococcus aureus [7] = assay: Antimicrobial activity against Methicillin-resistant Staphylococcus aureus BFSA48 assessed as bacterial growth inhibition by microdilution method; format: functional; conditions: BFA48
Staphylococcus aureus [8] = assay: Antimicrobial activity against Methicillin-resistant Staphylococcus aureus BFSA32 assessed as bacterial growth inhibition by microdilution method; format: functional; conditions: BFA32
Staphylococcus aureus [9] = assay: Antimicrobial activity against Methicillin-resistant Staphylococcus aureus BFSA25 assessed as bacterial growth inhibition by microdilution method; format: functional; conditions: BFA25
Staphylococcus aureus [10] = assay: Antimicrobial activity against Methicillin-resistant Staphylococcus aureus BFSA30 assessed as bacterial growth inhibition by microdilution method; format: functional; conditions: BFA30
Staphylococcus aureus [11] = assay: Antimicrobial activity against Methicillin-resistant Staphylococcus aureus assessed as bacterial growth inhibition incubated for 24 hrs; format: functional
Staphylococcus aureus [12] = assay: Antimicrobial activity against Methicillin-resistant Staphylococcus aureus ATCC 33592 assessed as bacterial growth inhibition incubated for 20 to 24 hrs by microdilution assay; format: functional; conditions: time 20-24 hrs
Staphylococcus aureus [13] = assay: Antimicrobial activity against Methicillin-resistant Staphylococcus aureus ATCC 3167 assessed as bacterial growth inhibition; format: functional
Staphylococcus aureus [14] = assay: Antimicrobial activity against Staphylococcus aureus LysRs assessed as bacterial growth inhibition by microdilution method; format: functional, organism-based
Staphylococcus aureus [15] = assay: Antimicrobial activity against Staphylococcus aureus 209 assessed as bacterial growth inhibition; format: functional
Staphylococcus aureus [16] = assay: Antimicrobial activity against Methicillin-resistant Staphylococcus aureus BAA-2312 assessed as bacterial growth inhibition; format: functional
Staphylococcus aureus [17] = assay: Antimicrobial activity against Methicillin-resistant Staphylococcus aureus ATCC 33592 assessed as bacterial growth inhibition; format: functional
Staphylococcus aureus [18] = assay: Antimicrobial activity against Methicillin-resistant Staphylococcus aureus ATCC 700699 assessed as bacterial growth inhibition; format: functional
Staphylococcus aureus [19] = assay: Antimicrobial activity against Methicillin-resistant Staphylococcus aureus ATCC 33591 assessed as bacterial growth inhibition; format: functional
Staphylococcus aureus [20] = assay: Antimicrobial activity against Methicillin-sensitive Staphylococcus aureus ATCC 25923 assessed as bacterial growth inhibition; format: functional
Staphylococcus aureus [21] = assay: Antimicrobial activity against Methicillin-resistant Staphylococcus aureus ATCC 43300 assessed as bacterial growth inhibition; format: functional
Staphylococcus aureus [22] = assay: Antimicrobial activity against Methicillin-resistant Staphylococcus aureus assessed as bacterial growth inhibition incubated for 24 hrs by agar disc diffusion method; format: functional
Staphylococcus aureus [23] = assay: Antimicrobial activity against Methicillin-resistant Staphylococcus aureus assessed as bacterial growth inhibition incubated for 24 hrs by microdilution method; format: functional

With `COc1c(N2C[C@@H]3CCCN[C@@H]3C2)c(F)cc2c(=O)c(C(=O)O)cn(C3CC3)c12` [MOXIFLOXACIN] the MIC (Staphylococcus aureus [1]) was 1 mg/L (≈ 2.49 µM) and the MIC (Staphylococcus aureus [2]) was 0.06 mg/L (≈ 0.149 µM).

In the case of `c1ccc(-c2cnn3c4c(cnc23)CCCCCC4)cc1`, the “inhibition zone (IZ)” value (Staphylococcus aureus [3]) was 50 mm and the MIC (Staphylococcus aureus [4]) was 9 mg/L.

Work on `CCCSC(=S)c1c(C)nn(-c2ccccc2)c1O` yielded an MIC (Staphylococcus aureus [5]) of 4 mg/L, an MIC (Staphylococcus aureus [6]) of 4 mg/L and an MIC (Staphylococcus aureus [7]) of 4 mg/L. The MIC (Staphylococcus aureus [8]) was 4 mg/L, the MIC (Staphylococcus aureus [9]) was 4 mg/L and the MIC (Staphylococcus aureus [10]) was 4 mg/L.

For `Cc1nn(-c2ccccc2)c(Cl)c1/C=C(\Br)C(=O)C1C(=O)N(C)C(=O)N(C)C1=O`, the MIC (Staphylococcus aureus [11]) was 25 mg/L (≈ 52.1 µM).

`O=C(O)c1ccc(-n2cc(/C=N/N(c3ccccc3)c3ccccc3)c(-c3cc4ccccc4oc3=O)n2)cc1` was tested, and the MIC (Staphylococcus aureus [12]) was 3.12 mg/L (≈ 5.93 µM).

`Cc1onc(-c2ccccc2)c1C(=O)N[C@@H]1C(=O)N2[C@@H]1SC(C)(C)[C@@H]2C(=O)O` [OXACILLIN] showed an MIC (Staphylococcus aureus [5]) greater than 32 mg/L, an MIC (Staphylococcus aureus [6]) greater than 32 mg/L and an MIC (Staphylococcus aureus [7]) greater than 32 mg/L. It also gave an MIC (Staphylococcus aureus [13]) of 64 µM (≈ 25.7 µg/mL), an MIC (Staphylococcus aureus [8]) greater than 32 mg/L and an MIC (Staphylococcus aureus [9]) greater than 32 mg/L. For the same molecule, the MIC (Staphylococcus aureus [10]) was greater than 32 mg/L.

`CCc1c2[nH]c(=O)[nH]c(=O)c2nn1CC1CCC1` was tested, and the pIC50 (Staphylococcus aureus [14]) was 4.66.

For `COc1[nH]nc2nncnc12`, the MIC (Staphylococcus aureus [15]) was 200 mg/L (≈ 1320 µM).

With `O=C(O)c1ccc(-n2cc(/C=N\N(c3ccccc3)c3ccccc3)c(-c3cc4cc(F)ccc4oc3=O)n2)cc1` the MIC (Staphylococcus aureus [16]) was 3.12 mg/L (≈ 5.74 µM), the MIC (Staphylococcus aureus [17]) was 3.12 mg/L (≈ 5.74 µM) and the MIC (Staphylococcus aureus [18]) was 3.12 mg/L (≈ 5.74 µM). The MIC (Staphylococcus aureus [19]) was 3.12 mg/L (≈ 5.74 µM) and the MIC (Staphylococcus aureus [20]) was 3.12 mg/L (≈ 5.74 µM).

Work on `CC(=O)c1c(N2Cc3nn(C)c(N)c3C2)c(F)cc2c(=O)c(C(=O)O)cn(C3CC3)c12` yielded an MIC (Staphylococcus aureus [2]) of 0.125 mg/L (≈ 0.294 µM).

`COc1ccc(-n2nc(C(C)(C)C)cc2NC(=O)c2cccc(Cl)c2)cc1` was tested, and the MIC (Staphylococcus aureus [21]) was 3.12 mg/L (≈ 8.13 µM).

For `COc1nnc2nn(C)cnc1-2`, the MIC (Staphylococcus aureus [15]) was 50 mg/L (≈ 303 µM).

For `CCOC(=O)c1nn(-c2ccccc2)cc1C(=O)c1ccc(S(=O)(=O)c2ccccc2)cc1`, the “inhibition zone (IZ)” value (Staphylococcus aureus [22]) was 14 mm and the MIC (Staphylococcus aureus [23]) was 25 mg/L (≈ 54.3 µM).
